Measurements reported in US12357669B1, “Modification of natural compounds to create products with enhanced health benefits” (priority 2024, dated 2025).

System: patient with continuously active ulcerative colitis (UC)
Experiment: observations in a patient with continuously active ulcerative colitis (UC)
Assay type: in vivo, human
Details: components without prior formation of the chelate/complex
Description: Many patients with ulcerative colitis have remitting/recurring disease activity which occurs spontaneously at random times. Other factors, such as changes in diet, stress, intercurrent use of medications either to control symptoms of UC or used to treat other conditions, such as antibiotics non steroidal pain medications and steroids, may make inflammation and symptoms worse or better depending on their particular properties.
Some patients with UC have unremitting continuously active disease which never goes into remission spontaneously. Such patients make excellent study subjects since the action of compounds designed to reduce disease activity and symptoms can be evaluated without the complicating factor of spontaneous changes in disease severity.
In the patient studied in this report disease activity was observed over several decades and was continuously active with no spontaneous remissions.

In the case of iron, the “amelioration of the symptoms of ulcerative colitis” value is reported as “not seen”.
